Structures are written as SMILES.

Results on 2 compounds are retold here after patent US20260034146A1, “NEUROACTIVE 19-ALKOXY-17-S[…], PRODRUGS THEREOF, AND METHODS OF TREATMENT USING SAME” (priority 2012, published 2026).

For test [1], the target named is picrotoxin binding site on GABAA receptors. Put plainly: [35S]-TBPS displacement (inhibition of [35S]-TBPS binding). Particulars: duplicate experiments performed in triplicate; ± standard error of the mean. The method, then: The IC50 values for non-competitive displacers of [^35S]-TBPS from the picrotoxin binding site on GABAA receptors are reported in Table 1.
^aResults presented are from duplicate experiments performed in triplicate. Error limits are calculated as standard error of the mean. Methods used are known in the art (see Jiang, X., et al., Neurosteroid analogues. 9. Conformationally constrained pregnanes: structure-activity studies of 13,24-cyclo-18,21-dinorcholane analogues of the GABA modulatory and anesthetic steroids (3α,5α)- and […]. J. Med. Chem., 46: 5334-48 (2003)—the contents of which are hereby incorporated by reference in their entirety).

Test [2] concerns the target rat α1β2γ2L type GABAA receptors expressed in Xenopus laevis oocytes (Rattus norvegicus (Rat), UniProt P62813+P63138, INS375LLRMFSFK). Nature of the test: Oocyte electrophysiology: potentiation of chloride currents mediated by 2 μM GABA, and direct gating. Format: cell-based. Particulars: ± SEM; for oocyte electrophysiology, ratio of currents in presence/absence of compound, 0.1 μM: 0.1 μM compound; for oocyte electrophysiology, ratio of currents in presence/absence of compound, 0.1 μM / oocyte electrophysiology, ratio of currents in presence/absence of compound, 1 μM / oocyte electrophysiology, ratio of currents in presence/absence of compound, 10 μM: 2 μM GABA control, N≥4 oocytes; for oocyte electrophysiology, ratio of currents in presence/absence of compound, 1 μM: 1 μM compound; for oocyte electrophysiology, ratio of currents in presence/absence of compound, 10 μM: 10 μM compound; for (gating) 10 μM, ratio of compound only current/2 μM GABA current: direct current gated by 10 μM compound in the absence of GABA, N≥4. The procedure: The compounds of the present disclosure were evaluated for the ability to potentiate chloride currents mediated by 2 μM GABA at rat α1β2γ2L type GABAA receptors expressed in Xenopus laevis oocytes and the results are shown in Table 2.
The GABA concentration used for the control response was 2 μM. Each compound was evaluated on at least four different oocytes at the concentrations indicated, and the results reported are the ratio of currents measured in the presence/absence of added compound. Gating represents direct current gated by 10 μM compound in the absence of GABA, and this current is reported as the ratio of compound only current/2 μM GABA current. Error limits are calculated as standard error of the mean (N≥4). Methods used are known in the art (see Jiang, X., et al.).

Another test has as its system male Sprague Dawley rats. Put plainly: Rat loss of righting reflex (LRR), intravenous bolus. Format: in vivo. The procedure:
The plasma pharmacokinetics and a qualitative assessment of sedation were obtained in male Sprague Dawley rats according to the following procedure. Rats were dosed by intravenous bolus dose (60 seconds) via the foot dorsal vein at doses ranging from 5 to 15 mg/kg in an appropriate vehicle. In order to assess sedation, rats were gently restrained by hand to a lateral position for dose administration. […] If the animal was unable to return to an upright position, the time was recorded as the onset of loss of righting reflex (LRR). […] Sluggish or incomplete righting twice consecutively within a 30 second interval qualifies as a loss of righting reflex. After onset of LRR, animals were assessed every 5 minutes in the same manner. Recovery of righting reflex is defined as the ability of a rat to right itself completely within 20 seconds of being placed in dorsal recumbency. The duration of LRR is defined as the time interval between LRR and the return of righting reflex.

Another test deals with male beagle dogs. Nature of the test: Dog duration of lateral recumbence, intravenous bolus. Format: in vivo. The settings on record: dog dose 5 mg/kg. The procedure: The plasma pharmacokinetics and a qualitative assessment of sedation were obtained in male beagle dogs according to the following procedure. Dogs were dosed by intravenous bolus dose (60 seconds) via the cephalic vein at 5 mg/kg dose in an appropriate vehicle. In order to assess sedation, dogs were gently restrained for dose administration. If decreased muscle tone, limb weakness, or head drop was observed during dose administration, onset of lateral recumbence was recorded. […] Sluggish or incomplete righting to the sternal position qualifies as lateral recumbence. After onset of lateral recumbence, animals were assessed every 5 minutes in the same manner. The duration of lateral recumbence was recorded as the time interval between onset of lateral recumbence and the return to sternal position.

As to `COC[C@]12CC[C@@H](O)C[C@@H]1CC[C@H]1[C@@H]3CC[C@H](C#N)[C@@]3(C)CC[C@@H]12` [16, MQ-92, (3α,5α,17β)-3-Hydroxy-19-methoxyandrostane-17-carbonitrile], the IC50 (commonly the point on the concentration scale where inhibition reaches its midpoint) in test [1] amounted to 63 ± 7 nM. Moreover, in test [2], the “oocyte electrophysiology, ratio of currents in presence/absence of compound, 0.1 μM” value stood at 1.52 ± 0.02; the “oocyte electrophysiology, ratio of currents in presence/absence of compound, 1 μM” value is given as 9.79 ± 0.53; the “oocyte electrophysiology, ratio of currents in presence/absence of compound, 10 μM” value stood at 25.7 ± 2.11; the “(gating) 10 μM, ratio of compound only current/2 μM GABA current” value came to 0.25 ± 0.11. In addition, the “Duration of Rat LRR” value in the test on male Sprague Dawley rats (rat dose 5 mg/kg) is reported as “B (B 10-20 min)”. For the same compound, the “Duration of Dog Lateral Recumbence” value with male beagle dogs is recorded as “B (B 10-20 min)”.
In turn, `COC[C@]12CC[C@@H](O)C[C@@H]1CC[C@H]1[C@@H]3CC[C@H]([N+](=O)[O-])[C@@]3(C)CC[C@@H]12` [29, MQ-97, (3α,5α,17β)-19-methoxy-17-nitroandrostan-3-ol] displayed an IC50 in test [1] of 37 ± 4 nM. In test [2], the “oocyte electrophysiology, ratio of currents in presence/absence of compound, 0.1 μM” value was determined as 2.07 ± 0.09; the “oocyte electrophysiology, ratio of currents in presence/absence of compound, 1 μM” value stood at 15.7 ± 1.45; the “oocyte electrophysiology, ratio of currents in presence/absence of compound, 10 μM” value amounted to 26.6 ± 4.34; the “(gating) 10 μM, ratio of compound only current/2 μM GABA current” value came to 0.11 ± 0.01. The “Duration of Rat LRR” value in the test on male Sprague Dawley rats (rat dose 15 mg/kg) is “B (B 10-20 min)”. Besides, in the test on male beagle dogs, the “Duration of Dog Lateral Recumbence” value is listed as “C (C >20 min)”.
